Assay results: ChEMBL document CHEMBL1201862, “PubChem BioAssay data set” (2004)
The source made the active and inactive calls.

Tests used:
[1] = loss of viability in HepG2 cells – cell-based, CellTiter-Glo, cherry-picked, cytotoxicity control for Shn3 inhibitor project, dose response (AID 624134); type: functional
[2] = non-specific 3'UTR reporter inhibition in Clone20-Shn3RL – cell-based, Renilla luciferase, cherry-picked, counter-screen for Shn3 inhibitor project, dose response (AID 624133); type: functional
[3] = reduction of Shn3 3'UTR-driven luciferase in osteoblasts – cell-based, Clone20 osteoblasts, firefly luciferase, cherry-picked, dose response (AID 624132); type: functional;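 further: firefly luciferase luminescence from reporter carrying the Shn3 3'UTR in osteoblasts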
INS1 = assay: INS-1E survival protection against cytokine death – cell-based, luminescence, retest, dose response (AID 449756); type: functional; details: Rattus norvegicus;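 further: cell death triggered by IL-1 beta plus TNF-alpha plus IFN-gamma mixture; protective hits raise ATP signal compared with cytokine alone wells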
Large T antigen = Large T antigen (Simian virus 40, UniProt P03070); type: functional, Betapolyomavirus macacae;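 further: Confirmatory-stage PubChem screen for compounds that inhibit SV40 T antigen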
[4] = Luminescence Cell-Based Dose Confirmation HTS to Identify Inhibitors of Platelet Dense Granule Release. [Related pubchem assays: 1663 (Primary HTS), 1678 (Summary of Project)]; type: functional
[5] = biological target: Luciferin 4-monooxygenase (Photinus pyralis, UniProt P08659); assay: inhibition of purified Photinus pyralis luciferase – biochemical, luminescence, dose response (AID 1891)
[6] = biological target: Induced myeloid leukemia cell differentiation protein Mcl-1 (Homo sapiens, UniProt Q07820); type: functional
[7] = biological target: T1, Corticotropin-releasing factor receptor 2/Corticotropin-releasing factor-binding protein (Homo sapiens, UniProt P24387+Q13324); assay: Dose Response confirmation of uHTS hits for small molecule antagonists of the CRF-binding protein and CRF-R2 receptor complex.; type: functional; details: read-out: IC50_Mean
T1 sequence (Q13324 whole entry): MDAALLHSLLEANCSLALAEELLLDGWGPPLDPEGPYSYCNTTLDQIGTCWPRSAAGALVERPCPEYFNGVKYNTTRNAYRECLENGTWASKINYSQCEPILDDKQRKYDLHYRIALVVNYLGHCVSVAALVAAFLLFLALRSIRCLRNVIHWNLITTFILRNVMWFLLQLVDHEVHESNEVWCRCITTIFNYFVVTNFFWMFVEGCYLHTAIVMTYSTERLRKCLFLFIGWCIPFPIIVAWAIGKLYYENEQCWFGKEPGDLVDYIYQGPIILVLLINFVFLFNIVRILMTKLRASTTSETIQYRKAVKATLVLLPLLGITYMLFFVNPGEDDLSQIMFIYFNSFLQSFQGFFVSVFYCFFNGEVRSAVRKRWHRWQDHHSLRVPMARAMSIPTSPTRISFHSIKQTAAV
T1 sequence (P24387 whole entry): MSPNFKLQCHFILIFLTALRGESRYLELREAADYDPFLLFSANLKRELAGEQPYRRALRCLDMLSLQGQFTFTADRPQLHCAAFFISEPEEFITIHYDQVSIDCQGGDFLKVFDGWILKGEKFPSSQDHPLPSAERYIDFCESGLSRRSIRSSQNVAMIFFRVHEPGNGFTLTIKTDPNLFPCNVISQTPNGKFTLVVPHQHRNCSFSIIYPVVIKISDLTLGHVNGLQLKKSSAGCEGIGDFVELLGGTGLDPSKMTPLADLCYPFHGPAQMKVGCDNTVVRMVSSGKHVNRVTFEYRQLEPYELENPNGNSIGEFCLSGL

[8] = biological target: T1, Corticotropin-releasing factor receptor 2/Corticotropin-releasing factor-binding protein; assay: activators of CRF receptor 2 with binding protein – uHTS hits, confirmation (AID 602473); type: functional; details: read-out: EC50_Mean
cells = type: functional
[9] = Trypanosoma cruzi growth suppression in host cells – NIH3T3 host cells, beta-gal luminescence, confirmation (AID 2044); type: functional, cell-based;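 further: intracellular parasites grown in NIH/3T3 mouse fibroblasts as host cells; luminescent beta-galactosidase reporter signal from transgenic T. cruzi replicating inside host cells; inhibitors lower the luminescence signal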
[10] = NIH3T3 cell viability loss – ATP luminescence, mouse fibroblasts, counter-screen, dose response (AID 2010); type: functional, cell-based;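 further: cells exposed to compound for about 90 hours before reading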
BJ [11] = assay: cells; type: functional, cell-based, Homo sapiens; details: Homo sapiens, BJ
[12] = DRD fibroblast viability loss – cell-based, non-viral oncogenic, luminescence, dose response (AID 1934); type: functional; details: Homo sapiens
BJ [13] = assay: BJ-TERT fibroblast viability loss – cell-based, RAS-independent, luminescence, dose response (AID 1933); type: functional, Homo sapiens; details: Homo sapiens, BJ
BJ [14] = assay: BJ-TERT-LT-ST fibroblast viability loss – cell-based, RAS-independent, luminescence, dose response (AID 1935); type: functional, Homo sapiens; details: Homo sapiens, BJ;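 further: BJ fibroblasts immortalized with TERT plus LT and ST oncogenes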
H9c2 = assay: cells; type: functional, cell-based; details: Rattus norvegicus, H9c2, Myocardium;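 further: confirmatory concentration-response retest of ultra-high-throughput screening hits for modulation of myocardial damage; cell death induced by hydrogen peroxide oxidative stress; compound pretreatment for 60 min then peroxide exposure for 2 h; potency is for protecting the cells against peroxide damage rather than for killing them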
Protein skinhead-1 = biological target: T2, Protein skinhead-1 (Caenorhabditis elegans, UniProt P34707); type: functional
T2 sequence (P34707 whole entry): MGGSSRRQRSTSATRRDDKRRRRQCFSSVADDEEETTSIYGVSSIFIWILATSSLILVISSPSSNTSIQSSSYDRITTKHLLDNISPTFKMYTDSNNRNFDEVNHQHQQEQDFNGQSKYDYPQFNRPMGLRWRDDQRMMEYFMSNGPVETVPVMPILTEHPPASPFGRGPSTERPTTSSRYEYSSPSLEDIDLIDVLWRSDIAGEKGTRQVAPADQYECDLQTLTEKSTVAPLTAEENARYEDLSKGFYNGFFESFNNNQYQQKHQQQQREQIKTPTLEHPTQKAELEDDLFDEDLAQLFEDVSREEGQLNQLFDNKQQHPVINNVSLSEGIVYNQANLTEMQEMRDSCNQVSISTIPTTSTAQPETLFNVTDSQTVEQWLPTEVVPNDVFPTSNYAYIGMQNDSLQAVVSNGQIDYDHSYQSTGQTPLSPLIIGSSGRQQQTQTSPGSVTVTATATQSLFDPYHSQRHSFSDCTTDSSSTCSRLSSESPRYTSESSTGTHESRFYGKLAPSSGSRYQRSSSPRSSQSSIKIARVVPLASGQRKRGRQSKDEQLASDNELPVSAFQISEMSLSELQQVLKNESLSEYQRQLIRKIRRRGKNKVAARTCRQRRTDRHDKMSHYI

Cytochrome P450 2C9 = Cytochrome P450 2C9 (Homo sapiens, UniProt P11712)
[15] = viability of PTEN-deleted HCT116 cells – cell-based, HCT116 PTEN knockout, dose response (AID 1047); type: functional;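 further: HCT116 colon tumor cells with PTEN knocked out; cells exposed to compound for 60 hours before readout; potency for loss of cell viability measured by luminescence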
[16] = P. falciparum Dd2 growth inhibitors, dose response, SYBR Green, cherry-picked samples (AID 1159567); type: functional, cell-based

Induced myeloid leukemia cell differentiation protein Mcl-1, sequence (Q07820 whole entry): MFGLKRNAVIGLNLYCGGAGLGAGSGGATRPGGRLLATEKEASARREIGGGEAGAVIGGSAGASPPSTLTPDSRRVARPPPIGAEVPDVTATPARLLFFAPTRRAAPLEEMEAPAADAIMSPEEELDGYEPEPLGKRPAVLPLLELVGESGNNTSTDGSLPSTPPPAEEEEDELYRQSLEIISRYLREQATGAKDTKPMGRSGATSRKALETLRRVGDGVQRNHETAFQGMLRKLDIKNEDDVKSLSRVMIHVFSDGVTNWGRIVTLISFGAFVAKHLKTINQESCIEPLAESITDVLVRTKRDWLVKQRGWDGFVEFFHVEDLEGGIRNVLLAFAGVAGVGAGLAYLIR
Luciferin 4-monooxygenase, sequence (P08659 whole entry): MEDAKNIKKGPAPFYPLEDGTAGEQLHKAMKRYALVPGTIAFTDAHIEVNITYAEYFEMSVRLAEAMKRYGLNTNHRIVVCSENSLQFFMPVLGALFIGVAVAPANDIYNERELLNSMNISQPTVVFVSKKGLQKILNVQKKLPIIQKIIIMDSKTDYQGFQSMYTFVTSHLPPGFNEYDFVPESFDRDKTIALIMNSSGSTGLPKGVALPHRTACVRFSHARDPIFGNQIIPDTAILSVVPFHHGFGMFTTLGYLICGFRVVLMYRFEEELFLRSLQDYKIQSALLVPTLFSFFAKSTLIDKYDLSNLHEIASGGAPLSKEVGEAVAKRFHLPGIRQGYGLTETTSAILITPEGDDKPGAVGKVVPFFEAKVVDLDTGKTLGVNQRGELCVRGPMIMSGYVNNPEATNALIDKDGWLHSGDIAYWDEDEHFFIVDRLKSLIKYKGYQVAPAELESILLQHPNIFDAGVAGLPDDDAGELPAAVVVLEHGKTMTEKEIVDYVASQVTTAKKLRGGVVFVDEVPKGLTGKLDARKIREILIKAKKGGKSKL
Large T antigen, sequence (P03070 whole entry): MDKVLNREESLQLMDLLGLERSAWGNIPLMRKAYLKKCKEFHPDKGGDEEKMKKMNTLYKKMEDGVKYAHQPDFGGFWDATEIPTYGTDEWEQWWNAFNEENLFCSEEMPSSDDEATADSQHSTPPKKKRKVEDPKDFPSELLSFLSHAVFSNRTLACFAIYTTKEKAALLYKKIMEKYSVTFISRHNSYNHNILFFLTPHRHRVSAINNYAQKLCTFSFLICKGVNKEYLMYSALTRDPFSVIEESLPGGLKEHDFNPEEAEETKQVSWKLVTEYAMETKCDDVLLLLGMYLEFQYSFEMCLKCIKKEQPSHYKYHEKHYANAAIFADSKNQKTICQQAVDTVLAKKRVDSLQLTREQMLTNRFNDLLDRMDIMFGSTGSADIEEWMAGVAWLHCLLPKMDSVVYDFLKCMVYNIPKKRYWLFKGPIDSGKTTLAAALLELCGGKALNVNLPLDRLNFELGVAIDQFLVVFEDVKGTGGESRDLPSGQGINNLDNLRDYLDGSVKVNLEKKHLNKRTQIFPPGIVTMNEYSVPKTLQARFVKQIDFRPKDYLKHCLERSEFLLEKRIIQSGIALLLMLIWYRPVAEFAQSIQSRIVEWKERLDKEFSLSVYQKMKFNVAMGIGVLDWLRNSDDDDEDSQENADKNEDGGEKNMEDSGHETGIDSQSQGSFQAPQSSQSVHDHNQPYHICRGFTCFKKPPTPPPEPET
Cytochrome P450 2C9, sequence (P11712 whole entry): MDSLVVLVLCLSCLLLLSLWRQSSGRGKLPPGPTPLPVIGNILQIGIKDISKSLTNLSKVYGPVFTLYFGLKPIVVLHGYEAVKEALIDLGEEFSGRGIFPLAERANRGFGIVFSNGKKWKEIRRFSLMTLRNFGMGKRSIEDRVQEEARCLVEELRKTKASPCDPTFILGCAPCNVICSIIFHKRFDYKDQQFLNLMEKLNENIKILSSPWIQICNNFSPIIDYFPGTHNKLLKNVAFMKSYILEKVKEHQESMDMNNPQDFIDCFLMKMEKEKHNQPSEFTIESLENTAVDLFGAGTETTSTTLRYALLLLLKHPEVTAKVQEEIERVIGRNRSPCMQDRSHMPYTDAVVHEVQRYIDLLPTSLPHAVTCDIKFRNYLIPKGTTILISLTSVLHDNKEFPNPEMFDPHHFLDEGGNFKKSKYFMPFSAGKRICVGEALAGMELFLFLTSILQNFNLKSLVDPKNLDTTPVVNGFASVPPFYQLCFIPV

COCCN(C(=O)COC(=O)C1CCC(C(C)(C)C)CC1)c1c(N)n(Cc2ccccc2)c(=O)[nH]c1=O (centres undefined)
AC50 [1]: 43.1 µM (active)
AC50 [2]: 4.83 µM (active)
AC50 [3]: 5.15 µM (active)
AC50 (INS1): 2.34 µM (active)

N#C/C(=C\c1ccccc1OCc1ccc(C(=O)O)cc1)C(=O)Nc1ccc(O)cc1
IC50 (Large T antigen): 11.5 µM (active)

CCC(=O)c1ccc(OCC(O)Cn2c(C)nc3ccccc32)cc1 (centres undefined)
AC50 [1]: 49.9 µM (active)
AC50 [2]: 14.1 µM (active)
AC50 [3]: 2.28 µM (active)

COc1ccccc1NC(=O)NC1(C(=O)N2CCCCCC2)CCCCC1
EC50 [4]: > 112 µM (not active)
EC50 [5]: > 112 µM (not active)

COc1ccc(C(=O)CSc2nnc(-c3ccco3)c(-c3ccco3)n2)cc1
IC50 [6]: 6.58 µM (active)

Cc1cnc([N+](=O)[O-])n1CCOC(=O)NC(=O)c1cccc(F)c1
EC50 [4]: 18.4 µM (active)
EC50 [5]: > 112 µM (not active)

CCN1C(=O)/C(=C\C=C\c2ccccc2[N+](=O)[O-])SC1=S
IC50 [7]: > 47.1 µM (inactive)
EC50 [8]: > 53 µM (inactive)

Cc1cc(NC(=O)c2cc([N+](=O)[O-])cc([N+](=O)[O-])c2)no1
IC50 (cells): 13.3 µM (active)
EC50 [9]: 0.287 µM (active)
EC50 [10]: > 60 µM (not active)

O=C(Cc1cccs1)Nc1nc2c(ccc3ccccc32)s1
IC50 [7]: > 47.1 µM (inactive)
EC50 [8]: > 53 µM (inactive)

COc1cc2c(cc1OC)-c1cc(Nc3ccccc3)nc(=O)n1CC2
EC50 [4]: 1.63 µM (active)
EC50 [5]: > 112 µM (not active)

CCN(C(=O)CN1C(=O)NC(c2ccccc2)(c2ccccc2)C1=O)c1ccccc1
EC50 [4]: > 112 µM (not active)
EC50 [5]: > 112 µM (not active)

Oc1ccc(N=Nc2ccc3c(c2)OCO3)c2ccccc12
EC50 (BJ [11]): 10.9 µM (active)
EC50 [12]: 19.4 µM (inconclusive)
EC50 (BJ [13]): 2.85 µM (active)
EC50 (BJ [14]): 6.46 µM (inconclusive)

CC(C)CCN(C(=O)CNC(=O)c1ccco1)C(C(=O)NC1CCCCC1)c1ccco1 (centres undefined)
IC50 (H9c2): 17.4 µM (active)

O=C(Nc1nccs1)c1ccc2ccccc2c1
IC50 (cells): 6.75 µM (active)
IC50 (Protein skinhead-1): 20.8 µM (active)

CCNC(=O)c1c(NC(C)=O)sc2c1CCCC2
AC50 (Cytochrome P450 2C9): 17.8 µM (inconclusive)
EC50 [4]: 15.2 µM (active)
EC50 [5]: > 112 µM (not active)

Cc1ccc(S(=O)(=O)CCC(=O)OCC(=O)NCC(=O)Nc2cccc(C)c2C)cc1
EC50 [4]: > 112 µM (not active)
EC50 [5]: > 112 µM (not active)

Cc1ccc(C(=O)OCC(=O)c2cc(C)n(CC3CCCO3)c2C)cc1 (centres undefined)
IC50 [7]: > 47.1 µM (inactive)
EC50 [8]: > 53 µM (inactive)

CC(C)c1ccccc1-n1c(SCC(=O)N2CCc3ccccc3C2)nc2ccccc2c1=O
AC50 [1]: 55.4 µM (active)
AC50 [2]: 3.83 µM (active)
AC50 [3]: 2.99 µM (active)
AC50 (INS1): 2.44 µM (active)

N#Cc1c(-c2ccco2)c2c([nH]c1=S)CCCC2
IC50 (Large T antigen): 37.7 µM (active)

Cc1cccc(NC(=O)CSc2cc(C(=O)c3nccn3C)c3ccccc3n2)c1
EC50 [15]: 453 µM (active)

COc1ccc(NC(=O)C2CCCN(c3nn4c(=O)cc(C)nc4s3)C2)cc1 (centres undefined)
EC50 [4]: > 112 µM (not active)
EC50 [5]: > 112 µM (not active)

Cc1nnc(SCC(=O)N(C)Cc2ccccc2)nc1O
IC50 [7]: > 47.1 µM (inactive)
EC50 [8]: > 53 µM (inactive)

CN(C)c1ncc(S(=O)(=O)c2ccc(Cl)cc2)c(-c2ccc(Cl)cc2Cl)n1
IC50 [7]: > 47.1 µM (inactive)
EC50 [8]: > 53 µM (inactive)

O=C(Nc1cccc(S(=O)(=O)N2CCOCC2)c1)c1c2c(nc3ccccc13)CCC2
IC50 [6]: 5.02 µM (active)

CCCCn1c(N)c(N(CCC(C)C)C(=O)Cc2ccc(S(=O)(=O)N3CCOCC3)s2)c(=O)[nH]c1=O
IC50 [7]: > 47.1 µM (inactive)
EC50 [8]: > 53 µM (inactive)

C[C@H]1CN([C@@H](C)CO)C(=O)Cc2cc(NS(C)(=O)=O)ccc2O[C@@H]1CN(C)Cc1ccc(Cl)c(Cl)c1
IC50 [7]: > 47.1 µM (inactive)
EC50 [8]: 40.7 µM (active)

Cc1c(Cl)cccc1NC(=O)CNC(=O)Cc1nnc(O)c2ccccc12
IC50 (H9c2): > 79 µM (inactive)

Cc1ccc(C(=O)N/C(=C\c2cn(C)c3ccccc23)C(=O)NCCCN2CCOCC2)cc1
IC50 [7]: > 47.1 µM (inactive)
EC50 [8]: > 53 µM (inactive)

CCOc1ccc(S(=O)(=O)N2CCN(C(=O)c3ccncc3)CC2)cc1
IC50 [7]: > 47.1 µM (inactive)
EC50 [8]: > 53 µM (inactive)

CC[C@@H]1CCCCc2ccccc2[C@H](C(=O)C[C@H](O)CC(C)=O)OC1=O
IC50 [7]: > 47.1 µM (inactive)
EC50 [8]: > 53 µM (inactive)

CN(C)c1ccc(/C=N/NC(=O)c2cccc(C(=O)N/N=C/c3ccc(N(C)C)cc3)n2)cc1
IC50 [6]: 1.15 µM (active)

C[C@@H](O)C#Cc1ccc([C@H]2[C@H]3CN(S(=O)(=O)c4ccccc4)CCCCN3[C@H]2CO)cc1
AC50 [16]: 7.37 µM (active)

C[C@H]1CN([C@@H](C)CO)S(=O)(=O)c2ccc(C#Cc3ccccc3)cc2O[C@@H]1CN(C)S(=O)(=O)c1cn(C)cn1
AC50 [16]: 3.95 µM (active)

COc1ccc2c3c([nH]c2c1)[C@@H](CO)N(Cc1cc(F)ccc1F)CC31CN(C(=O)CN(C)C)C1
AC50 [16]: 3.87 µM (active)

Cn1c(=O)n(C)c2cc(NC(=O)CCl)ccc21
EC50 (BJ [11]): 20.7 µM (inconclusive)
EC50 [12]: 28 µM (active)
EC50 (BJ [13]): 18.8 µM (active)
EC50 (BJ [14]): > 75 µM (inconclusive)

O=C(O)C[C@H](O)C[C@H](O)/C=C/c1c(C2CC2)nc2ccccc2c1-c1ccc(F)cc1 [PITAVASTATIN CALCIUM]
EC50 (BJ [11]): 4.21 µM (active)
EC50 [12]: 0.353 µM (active)
EC50 (BJ [13]): 0.299 µM (active)
EC50 (BJ [14]): 0.559 µM (active)
